Test results from PMC7830877, “Possibility to Biotransform Anthracyclines by Peroxidases Produced by Bjerkandera adusta CCBAS 930 with Reduction of Geno- and Cytotoxicity and Pro-Oxidative Activity” (Molecules, 2021).
Like-named read-outs stand apart in the source and are kept apart here.

How the values were obtained:
bacteria = assay: Genotoxicity assay (SOS ChromoTest); conditions: before treatment
[1] = test system: caspase-3 activity in BJ fibroblasts; assay: Caspase-3 activity; type: cell-based, human; conditions: BJ cells; 24 h; medium with initial solutions
Method: The human skin fibroblasts cell line BJ (ATCC CRL-2522) was obtained from American Type Culture Collection (ATCC, distributors: LGC Standards, Łomianki, Poland). BJ cells were maintained in MEM medium without phenol red supplemented with 10% fetal bovine serum (FBS). Cells were maintained at 37 °C in a humidified atmosphere with 5% CO2. Cells were seeded in 96-well culture plates (Costar, St. Louis, MO, USA) at a density of 5 × 10^3 per well and initially cultured before the experiment for 24 h. […] Caspase-3 activity was assessed according to previous described method Nicholson et al. After 24 or 48 h of treatment with studied media culture plates were frozen in −80 °C and kept until assay. […] The lysates were incubated with substrate Ac-DEVD-pNA for caspase-3 at 37 °C. Cells treated with 1 μM staurosporine were used as a positive control (results not shown). After 30 min, absorbance of the lysates at 405 nm was measured using a microplate reader (FilterMax F5 Multi-Mode microplate reader). The amount of colorimetric product was continuously monitored for 120 min. The data were analyzed using Multi-Mode Analysis software (Molecular Devices, Corp., Sunnyvale, CA, USA).

V. fischeri = assay: Ecotoxicity assay (Microtox); type: cell-based, Vibrio fischeri; conditions: initial media 10 µg/mL or decolorized post-culture fluids
Method: The Microtox® (Model 500 Analyzer, London, UK) toxicity assay was used to evaluate the inhibition of luminescence of V. fischeri marine bacteria for untreated medium supplemented with DNR and DOX (10 µg/mL) and post-culture liquids of B. adusta CCBAS 930 according to the manufacturer’s protocol.

BJ fibroblasts [2] = assay: Resazurin reduction assay; type: cell-based, human; conditions: BJ cells, medium with initial solution
Method: The human skin fibroblasts cell line BJ (ATCC CRL-2522) was obtained from American Type Culture Collection (ATCC, distributors: LGC Standards, Łomianki, Poland). BJ cells were maintained in MEM medium without phenol red supplemented with 10% fetal bovine serum (FBS). Cells were maintained at 37 °C in a humidified atmosphere with 5% CO2. Cells were seeded in 96-well culture plates (Costar, St. Louis, MO, USA) at a density of 5 × 10^3 per well and initially cultured before the experiment for 24 h. […] The resazurin reduction cell viability and metabolism assay was performed according to a previously described method. On the day of analysis, a working solution of 60 µM resazurin was prepared in medium containing 1% FBS. […] Fluorescence was measured with an excitation wavelength of 530 nm and emission 590 nm on a FilterMax F5 Multi-Mode microplate reader (Molecular Devices, Corp., Sunnyvale, CA, USA) for 1 and 2 h after dye addition.

[3] = DPPH radical scavenging assay; type: physicochemical; conditions: initial solutions 10 µg/mL
Method: Antioxidant activity was measured using the DPPH^• radical scavenging assay according to Brand-Williams et al. (1995). Each 100 μL of post-culture fluids and initial DNR and DOX (10 μg/mL) solutions were mixed with 100 μL of […] DPPH^• solution in 96% ethanol. Following 30 min incubation at room temperature, sample absorbance was measured […]) using 96% ethanol as a blank sample.

B. adusta CCBAS 930 = assay: Free radical (SOR) content in B. adusta CCBAS 930 cultures (NBT); set-up: species or system Bjerkandera adusta
Method: The content of PhC was determined spectrophotometrically at A740nm according to Singleton and Rossi (1965) with a slight modification. SOR levels were estimated based on the detection of superoxide-induced formazan formation from nitrotetrazolium blue (NBT) (A560nm). Untreated medium with DNR or DOX at a concentration of 10 µg/mL was used as control.

BJ fibroblasts [4] = assay: ROS production (H2DCFDA); type: cell-based, human; conditions: BJ cells
Method: The human skin fibroblasts cell line BJ (ATCC CRL-2522) was obtained from American Type Culture Collection (ATCC, distributors: LGC Standards, Łomianki, Poland). BJ cells were maintained in MEM medium without phenol red supplemented with 10% fetal bovine serum (FBS). Cells were maintained at 37 °C in a humidified atmosphere with 5% CO2. Cells were seeded in 96-well culture plates (Costar, St. Louis, MO, USA) at a density of 5 × 10^3 per well and initially cultured before the experiment for 24 h. […] The ROS measurement was performed according to a previously described method. […] The cells were incubated in H2DCFDA in serum-free and phenol red-free medium for 45 min before conditioned medium treatment. After 24 and 48 h of incubation of the cells with increasing concentrations of compounds (5% CO2 at 37 °C), the culture medium was replaced with fresh medium to remove extracellular residual DCF and studied compounds to reduce the fluorescence background. Cells treated with 0.3% hydrogen peroxide (H2O2) were used as a positive control (result not shown).

BJ fibroblasts [5] = assay: Calcein AM staining; type: cell-based, human; conditions: BJ cells; 24 and 48 h; parent vs Control 1, metabolite vs parent
Method: The human skin fibroblasts cell line BJ (ATCC CRL-2522) was obtained from American Type Culture Collection (ATCC, distributors: LGC Standards, Łomianki, Poland). BJ cells were maintained in MEM medium without phenol red supplemented with 10% fetal bovine serum (FBS). Cells were maintained at 37 °C in a humidified atmosphere with 5% CO2. Cells were seeded in 96-well culture plates (Costar, St. Louis, MO, USA) at a density of 5 × 10^3 per well and initially cultured before the experiment for 24 h.

[6] = set-up: method as in PMID 17867890; conditions: SOS Chromotest, cited from earlier work

SMILES: COc1cccc2c1C(=O)c1c(O)c3c(c(O)c1C2=O)C[C@@](O)(C(C)=O)C[C@@H]3O[C@H]1C[C@H](N)[C@H](O)[C@H](C)O1 [DNR, daunomycin]
- CIF (corrected induction factor) (bacteria; C 0.15 µg mL^−1): 2.50
- CIF (corrected induction factor) (bacteria; C 0.31 µg mL^−1): 1.60
- CIF (corrected induction factor) (bacteria; C 0.62 µg mL^−1): 1.21
- CIF (corrected induction factor) (bacteria; C 1.25 µg mL^−1): 1.54
- CIF (corrected induction factor) (bacteria; C 2.50 µg mL^−1): 2.80
- CIF (corrected induction factor) (bacteria; C 5 µg mL^−1): 5.68
- CIF (corrected induction factor) (bacteria; C 10 µg mL^−1): 13.42
- caspase-3 activity [1]: not affected
- toxicity units (TU) (V. fischeri): 1.79 ± 0.09
- decrease in resazurin reduction compared to Control 1 (BJ fibroblasts [2]; 24 h): 48.49%
- decrease in resazurin reduction compared to Control 1 (BJ fibroblasts [2]; 48 h): 48.40%
- antioxidant activity (DPPH scavenging) [3]: did not show any antioxidant activity
- decrease in the content of free radicals (B. adusta CCBAS 930): 90.30%
- ROS production induced compared to Control 1 (BJ fibroblasts [4]; 24 h): 625.72%
- ROS production induced compared to Control 1 (BJ fibroblasts [4]; 48 h): 372.97%
- cell number (calcein AM staining) (BJ fibroblasts [5]): decrease in cell number

SMILES: COc1cccc2c1C(=O)c1c(O)c3c(c(O)c1C2=O)C[C@@](O)(C(=O)CO)C[C@@H]3O[C@H]1C[C@H](N)[C@H](O)[C@H](C)O1 [DOX, doxorubicin]
- concentration exhibiting genotoxic properties ([6]; with metabolic activation): 98 ng/mL
- concentration exhibiting genotoxic properties ([6]; without metabolic activation): 74 ng/mL
- CIF (corrected induction factor) (bacteria; C 0.15 µg mL^−1): 2.88
- CIF (corrected induction factor) (bacteria; C 0.31 µg mL^−1): 1.21
- CIF (corrected induction factor) (bacteria; C 0.62 µg mL^−1): 1.23
- CIF (corrected induction factor) (bacteria; C 1.25 µg mL^−1): 2.53
- CIF (corrected induction factor) (bacteria; C 2.50 µg mL^−1): 3.27
- CIF (corrected induction factor) (bacteria; C 5 µg mL^−1): 3.70
- CIF (corrected induction factor) (bacteria; C 10 µg mL^−1): 9.58
- caspase-3 activity [1]: not affected
- toxicity units (TU) (V. fischeri): 1.90 ± 0.13
- decrease in resazurin reduction compared to Control 1 (BJ fibroblasts [2]; 24 h): 50.36%
- decrease in resazurin reduction compared to Control 1 (BJ fibroblasts [2]; 48 h): 40.36%
- antioxidant activity (DPPH scavenging) [3]: did not show any antioxidant activity
- decrease in the content of free radicals (B. adusta CCBAS 930): 90.70%
- ROS production induced compared to Control 1 (BJ fibroblasts [4]; 24 h): 680.22%
- ROS production induced compared to Control 1 (BJ fibroblasts [4]; 48 h): 457.34%
- cell number (calcein AM staining) (BJ fibroblasts [5]): decrease in cell number
